Assay results as given in US20120115817A1, “PHTHALIMIDE DERIVATIVES OF NON-STEROIDAL ANTI-INFLAMMATORY COMPOUNDS AND/OR TNF-ALPHA MODULATORS, METHOD FOR PRODUCING SAME, PHARMACEUTICAL COMPOSITIONS CONTAINING SAME AND USES THEREOF FOR THE TREATMENT OF INFLAMMATORY DISEASES” (EMS S.A., priority 2009, published 2012).
Entries after “also recorded” stand apart in the source; their conditions may differ.

Legend:
[1] = system: rat paw edema induced by carrageenan; assay: Rat paw edema induced by carrageenan; type: in vivo, Wistar rat; details: orally; for anti-inflammatory activity compared with carrageenan-only control / anti-inflammatory activity compared with the standard NSAID: single dose of 100 μmol/kg
Method: The anti-inflammatory activity of new phthalmidic derivatives claimed in this patent was evaluated through the model of paw edema induced by carrageenin.
The methodology to be reported can be found in detail in Bandarage, U. K.; Chen, L.; Fang, X.; Garvey, U. S.; Glavin, A.; Janero, D. R.; Letts, L. G.; Mercer, G. J.; Saha, J. K.; Schroeder, J. D.; Shumway, M. J.; Tam, S. W. Nitrosothiol Esters of Diclofenac: Synthesis and Pharmacological Characterization of the Gastrointestinal-Sparing Prodrugs. J. Med. Chem. v. 43, p. 4005-4016, 2000.
The injection of carrageenan in Wistar rat paw causes edema and local inflammation which can be seen by the increased thickness of the rat paw. Pre-treatment with compounds that have anti-inflammatory activity decreases the edema and inflammation caused by carrageenan administration.
The compounds of this invention have been administrated one (1) hour before inoculation of the irritating agent, carrageenan in the paws of the animals with the aid of a gavage tube orally, using water as a solvent.
The monitoring of the inflammation and the anti-inflammatory activity of the compounds of the invention was made by measuring the thickness in millimeters, of the rat's paw.
The control group received sub plantar injection, in the hind paws, the irritating chemical agent, carrageenan, and saline solution, orally.
The hind paws were measured before treatment and hourly for 6 hours after administration of carrageenan, through the thickness to determine their volumes (in mm). The results were expressed as the difference between the readings of the paws before and after treatments.

gastric mucosa = assay: Gastric lesion test (gastric ulcerogenesis); type: in vivo, rat; parameters: key to grade of gastric lesion (ulceration): ground zero for the ulceration of compounds that do not damage the gastric lining; lesions <1 mm=grade 1; 1.5 to 2.5 mm grade 2; 2.5 to 3.5 mm=grade 3; 3.5 to 4.5 mm, and grade 4; >4.5 mm=grade 5; details: for change in color or morphology of the gastric mucosa / lesion on the gastric lining / gastric ulceration / grade of gastric lesion (ulceration): single dose of 100 μmol/kg; for grade of gastric lesion (ulceration): scale zero to 5
Excerpt: We performed the evaluation of gastric lesions caused by new anti-inflammatory derived from phthalimide of the invention and compared with standard anti-inflammatory drugs (without molecular modification). The compounds were classified according to the grade of damage caused on a scale ranging from 1-5. It was assumed that: lesions <1 mm=grade 1, 1.5 to 2.5 mm grade 2, 2.5 to 3.5 mm=grade 3, 3.5 to 4.5 mm, and grade 4=>4.5 mm=grade 5. The results obtained were reported as averages±E. P. M. All results were submitted to the variance homogeneity test (Levene's Test) to confirm homogeneity. The results with not significant p (above 0.05), were subsequently subjected to Variance Analysis (ANOVA) followed by multiple comparison test (post hoc analyses) such as the Newman-Keul's test, and only the values of p were considered when they were equal or below 0.05.
The stomachs were also evaluated on the number of lesions observed.
In order to characterize the profile of gastric lesion caused by the new anti-inflammatory derivatives of the invention the extent of the lesions caused by the administration of said anti-inflammatory agents was measured.
The gastric ulcerogenesis was verified in the same animals from the groups used for the paw's edema model.
After six hours of readings of the legs, the animals were euthanized in CO2 and had their stomachs removed, opened towards greater curvature and washed with saline.
Through the exposure of the mucosa its color and integrity were shown. In the case of the existence of lesions, these were counted and measured according to the rate of gastric ulcerogenesis (IUG), which abides by numerical criteria for the classification of gastric mucosal lesions: (lesions <1 mm=1; 1.5 to 2.5 mm=2; 2.5 to 3.5 mm=3, 3.5 to 4.5 mm=4 and >4.5 mm=5). The results obtained were reported as averages±E. P. M.

[2] = system: abdominal contortions induced by acetic acid; assay: Abdominal contortion test induced by acetic acid; type: in vivo, Swiss mice; details: mice, oral; for inhibitory activity of abdominal contortion: 100 μmol/kg (FIG. 8); for Average (abdominal contortions): acetic acid 0.1 N; for % of inhibition of abdominal contortions: acetic acid 0.1 N (Table 2)
Method: Additionally, we conducted the evaluation of possible adverse reactions of the compounds of the invention through the abdominal contortion test induced by acetic acid. […] The results are represented in FIG. 8.
The antinociceptive profile was evaluated by testing abdominal contortions induced by acetic acid in mice. In this assay, there were used Swiss mice of both sexes weighing between 21 and 28 g, fasted for a period of approximately 8 hours. The test-substance was administered orally and had as the gum Arabic at 5% as vehicle. One hour later, it was administered acetic acid at 0.1 N (0.1 mL/10 g weight) in the peritoneal cavity of the animals. Ten minutes after injection of acetic acid, the contortions were counted for 20 minutes.

[3] = system: abdominal contortions induced by acetic acid; details: reports in the literature; cited from earlier work

SMILES | anti-inflammatory activity compared with carrageenan-only control [1] | change in color or morphology of the gastric mucosa (gastric mucosa; rat) | lesion on the gastric lining / gastric ulceration (gastric mucosa; rat) | grade of gastric lesion (ulceration) (gastric mucosa; rat) | inhibitory activity of abdominal contortion [2] | Average (abdominal contortions) ([2]; 100 μmol/kg) | % of inhibition of abdominal contortions ([2]; 100 μmol/kg) [%] | other results
COc1ccc2cc(C(C)C(=O)NN3C(=O)c4ccccc4C3=O)ccc2c1 (stereo not shown) [Example 3.3, N-(1,3-dioxy-1,3-dihydro-2H-isoindol-2-yl)-2-(6-methoxy-2-naphtyl)propanamide] | significant anti-inflammatory activity | did not observe any—macro- and microscopically—morphological change or in the color of the stomach tissue | no lesion on the gastric lining | zero | around 42.5% | 37.8 | 42.5 | anti-inflammatory activity compared with the standard NSAID [1]: superior activity compared with ibuprofen; also recorded: much greater than naproxen
Cc1ccc(-c2cc(C(F)(F)F)nn2-c2ccc(S(N)(=O)=O)cc2)cc1 [celecoxib, reference compound] | – | – | – | 2 (1.5 to 2.5 mm grade 2) | – | – | – | –
O=C(NN1C(=O)c2ccccc2C1=O)c1ccccc1O [Example 1.3, N-(1,3-dioxy-1,3-dihydro-2H-isoindol-2-yl)-2-hydroxybenzamide] | significant anti-inflammatory activity | – | – | 1 (lesions <1 mm=grade 1) | around 17.2% | 54.5 | 17.2 | total area of lesions (gastric mucosa; observed in six stomachs, 100 μmol/kg): 2.9 mm^2; size of microlesions on the stomach lining (gastric mucosa; rat, 100 μmol/kg): less than 1 mm; analgesic activity ([2]; 100 μmol/kg): showed no analgesic activity
O=C(O)c1ccccc1O [salicylic acid, reference compound] | – | – | – | 5 (>4.5 mm=grade 5) | – | – | – | –
O=C(O)Cc1ccccc1Nc1c(Cl)cccc1Cl [diclofenac, reference compound] | – | – | – | 5 (>4.5 mm=grade 5) | – | – | – | analgesic activity in this model according to the literature [3]: do not have analgesic activity
Cc1ccc(Nc2c(F)cccc2Cl)c(CC(=O)NN2C(=O)c3ccccc3C2=O)c1 [Example 6.3, 2-{2-[(2-chloro-6-fluorophenyl)amine]-5-methylphenyl}-N-(1,3-dioxy-1,3-dihydro-2H-isoindol-2-1)acetamide] | significant anti-inflammatory activity | did not observe any—macro- and microscopically—morphological change or in the color of the stomach tissue | no lesion on the gastric lining | zero | – | – | – | –
CC(C)Cc1ccc(C(C)C(=O)NN2C(=O)c3ccccc3C2=O)cc1 (stereo not shown) [Example 2.3, N-(1,3-dioxy-1,3-dihydro-2H-isoindol-2-yl)-2-(4-isobutylphenyl)propanamide] | significant anti-inflammatory activity | a little change in color of the mucosa | no lesion on the gastric lining | zero | – | – | – | anti-inflammatory activity compared with the standard NSAID [1]: superior activity compared with ibuprofen
O=C(Cc1ccccc1Nc1c(Cl)cccc1Cl)NN1C(=O)c2ccccc2C1=O [Example 5.3, 2-{2-[(2,6-dichlorophenyl)amino]phenyl}-N-(1,3-dioxy-1,3-dihydro-2H-isoindol-2-yl)acetamide] | significant anti-inflammatory activity | a little change in the color of the mucosa | no lesion on the gastric lining | zero | ~16.2% | 55.1 | 16.2 | anti-inflammatory activity compared with diclofenac at 120 minutes ([1]; 100 μmol/kg, time of 120 minutes): significantly higher anti-inflammatory activity than that of diclofenac; anti-inflammatory activity compared with diclofenac at 240 and 360 minutes ([1]; 100 μmol/kg, times 240 and 360 minutes): same activity profile is kept; anti-inflammatory activity compared with the standard NSAID [1]: significant anti-inflammatory activity when compared to positive control (carrageenan), and to diclofenac
CC(C)Cc1ccc(C(C)C(=O)O)cc1 (stereo not shown) [ibuprofen, reference compound] | – | – | – | 5 (>4.5 mm=grade 5) | – | – | – | –
CC(C(=O)NN1C(=O)c2ccccc2C1=O)c1cccc(C(=O)c2ccccc2)c1 (stereo not shown) [Example 4.3, 2-(3-benzoylphenyl)-N-(1,3-dioxy-1,3-dihydro-2H-isoindol-2-yl)propanamide] | – | – | – | – | ~37.9% | 40.8 | 37.9 | –
Cc1ccc(Nc2c(F)cccc2Cl)c(CC(=O)O)c1 [lumiracoxib, reference compound] | – | – | – | 2 (1.5 to 2.5 mm grade 2) | – | – | – | –
COc1ccc2cc([C@H](C)C(=O)O)ccc2c1 [naproxen, reference compound] | – | – | – | 5 (>4.5 mm=grade 5) | about 43% | – | – | –
